Results taken from paper PMC9981719, “A novel designed membrane-active peptide for the control of foodborne Salmonella enterica serovar Typhimurium” (Scientific Reports, 2023).
Where no end group is shown, it is not given here.

Legend:
[1] = system: S. Typhimurium ATCC 13311 and 10 drug-resistant S. Typhimurium and S. enterica isolates; assay: Checkerboard titration, A11 with nisin, summary over strains; type: cell-based, Salmonella enterica; settings: summary over tested strains
Method: (§1) Effects of the combination of A11 with nisin against S. Typhimurium ATCC 13311 and 10 drug-resistant S. Typhimurium and S. enterica isolates were determined by the checkerboard titration method. Briefly, 10 drug-resistant S. Typhimurium were grown to a concentration of 1 × 10^7 CFU/ml in fresh TSB. Aliquots (25 µl) of nisin (final concentrations of 0.5–16 mg/ml) and A11 (final concentrations of 0.98–250 µg/ml) were added into 96-well plates containing 50 µl of bacterial suspension and cultured at 37 °C. […] ICA is the concentration required to produce the same effect as compound A when used alone, ICB is the concentration required to produce the same effect as compound B when used alone. The CI results were interpreted as follows: a CI of less than 1 indicates synergistic effect, a CI equal to 1 indicates additive effect, and a CI of more than 1 indicates antagonistic effect.

[2] = system: 16 drug-resistant S. Typhimurium and 4,5,12:i:- isolates from Thailand; type: cell-based, Salmonella enterica; settings: summary over 16 isolates; nisin up to maximum concentration of 16,000 µg/ml
From the text: (§2) All tests were done in triplicate.

[3] = system: S. Typhimurium H1-006; assay: MIC/MBC against drug-resistant isolate; type: cell-based, Salmonella enterica serovar Typhimurium; settings: strain H1-006
From the text: as §2

[4] = system: S. Typhimurium H1-041; assay: MIC/MBC against drug-resistant isolate; type: cell-based, Salmonella enterica serovar Typhimurium; settings: strain H1-041
From the text: as §2

[5] = system: S. Typhimurium H1-062; assay: MIC/MBC against drug-resistant isolate; type: cell-based, Salmonella enterica serovar Typhimurium; settings: strain H1-062
From the text: as §2

[6] = system: S. Typhimurium H1-006; settings: checkerboard
Method: as §1

[7] = system: S. Typhimurium ATCC13311; settings: checkerboard, TSB, 37 °C, 24 h
Method: as §1

[8] = system: 4,5,12:i:- H2-089; settings: checkerboard
Method: as §1

[9] = system: S. Typhimurium H1-001; settings: checkerboard
Method: as §1

[10] = system: 4,5,12:i:- H1-100; settings: checkerboard
Method: as §1

[11] = system: S. Typhimurium H1-015; settings: checkerboard
Method: as §1

[12] = system: 4,5,12:i:- H2-039; settings: checkerboard
Method: as §1

[13] = system: S. Typhimurium H1-041; settings: checkerboard
Method: as §1

[14] = system: 4,5,12:i:- H2-042; settings: checkerboard
Method: as §1

[15] = system: S. Typhimurium H1-062; settings: checkerboard
Method: as §1

[16] = system: S. Typhimurium H1-011; settings: checkerboard
Method: as §1

[17] = system: S. Typhimurium H1-001; type: cell-based, Salmonella enterica serovar Typhimurium; settings: strain H1-001
From the text: as §2

[18] = system: S. Typhimurium H1-015; type: cell-based, Salmonella enterica serovar Typhimurium; settings: strain H1-015
From the text: as §2

[19] = system: Salmonella Typhimurium ATCC 13311; type: cell-based, Salmonella enterica serovar Typhimurium; settings: broth microdilution in MHB, 37 °C, 24 h, visible inspection, triplicate
From the text: as §2

[20] = system: S. Typhimurium H1-011; type: cell-based, Salmonella enterica serovar Typhimurium; settings: strain H1-011
From the text: as §2

[21] = system: 4,5,12:i:- H2-049; type: cell-based, Salmonella enterica 4,5,12:i:-; settings: strain H2-049
From the text: as §2

[22] = system: 4,5,12:i:- H2-089; type: cell-based, Salmonella enterica 4,5,12:i:-; settings: strain H2-089
From the text: as §2

[23] = system: 4,5,12:i:- H1-100; type: cell-based, Salmonella enterica 4,5,12:i:-; settings: strain H1-100
From the text: as §2

[24] = system: 4,5,12:i:- H2-071; type: cell-based, Salmonella enterica 4,5,12:i:-; settings: strain H2-071
From the text: as §2

[25] = system: 4,5,12:i:- H2-039; type: cell-based, Salmonella enterica 4,5,12:i:-; settings: strain H2-039
From the text: as §2

[26] = system: 4,5,12:i:- H1-024; type: cell-based, Salmonella enterica 4,5,12:i:-; settings: strain H1-024
From the text: as §2

[27] = system: 4,5,12:i:- H2-047; type: cell-based, Salmonella enterica 4,5,12:i:-; settings: strain H2-047
From the text: as §2

[28] = system: 4,5,12:i:- H2-010; type: cell-based, Salmonella enterica 4,5,12:i:-; settings: strain H2-010
From the text: as §2

[29] = system: 4,5,12:i:- H2-042; type: cell-based, Salmonella enterica 4,5,12:i:-; settings: strain H2-042
From the text: as §2

[30] = system: 4,5,12:i:- H2-067; type: cell-based, Salmonella enterica 4,5,12:i:-; settings: strain H2-067
From the text: as §2

**Q.** Which “MIC of nisin in combination with A11” value [1] does the source give for “Nisin (ITSISLCTPGCKTGALMGCNMKTATCHCSIHVSK; not fully specified (some residues, bridges); also: lantibiotic nisin-A: thioether (lanthionine) rings and dehydrated residues, places not given here; UniProt P13068 24-57, looked up) [bacteriocin, lantibiotic produced by Lactococcus lactis subsp. lactis, approved food preservative]” here?
**A.** The value was 500 µg/mL.

**Q.** What about the “MICs against the 16 drug-resistant S. enterica isolates” value [2] of the same substance?
**A.** The value was > 16,000 µg/ml.

**Q.** What about the MIC [3] of the same substance?
**A.** Its MIC is > 16,000 µg/ml.

**Q.** What about the MIC [4] of the same substance?
**A.** Its MIC is > 16,000 µg/ml.

**Q.** And the MIC [5]?
**A.** Its MIC is > 16,000 µg/ml.

**Q.** And the “MIC (combination)” value ([6]; A11 combined with nisin)?
**A.** The value was 500 µg/mL.

**Q.** What about the “MIC (alone)” value ([6]; TSB, 37 °C, 24 h) of the same substance?
**A.** The value was > 16,000 µg/ml.

**Q.** And the “MIC (combination)” value ([7]; A11 combined with nisin)?
**A.** Its value is 4000 µg/mL.

**Q.** What about the “MIC (alone)” value [7] of the same substance?
**A.** Its value is 16,000 µg/ml.

**Q.** What about the “MIC (combination)” value ([8]; A11 combined with nisin) of the same substance?
**A.** The value was 500 µg/mL.

**Q.** And the “MIC (alone)” value ([8]; TSB, 37 °C, 24 h)?
**A.** Its value is > 16,000 µg/ml.

**Q.** What about the “MIC (combination)” value ([9]; A11 combined with nisin) of the same substance?
**A.** The value was 500 µg/mL.

**Q.** And the “MIC (alone)” value ([9]; TSB, 37 °C, 24 h)?
**A.** Its value is > 16,000 µg/ml.

**Q.** And the “MIC (combination)” value ([10]; A11 combined with nisin)?
**A.** Its value is 500 µg/mL.

**Q.** What about the “MIC (alone)” value ([10]; TSB, 37 °C, 24 h) of the same substance?
**A.** Its value is > 16,000 µg/ml.

**Q.** What about the “MIC (combination)” value ([11]; A11 combined with nisin) of the same substance?
**A.** Its value is 500 µg/mL.

**Q.** And the “MIC (alone)” value ([11]; TSB, 37 °C, 24 h)?
**A.** The value was > 16,000 µg/ml.

**Q.** And the “MIC (combination)” value ([12]; A11 combined with nisin)?
**A.** Its value is 500 µg/mL.

**Q.** What about the “MIC (alone)” value ([12]; TSB, 37 °C, 24 h) of the same substance?
**A.** Its value is > 16,000 µg/ml.

**Q.** What about the “MIC (combination)” value ([13]; A11 combined with nisin) of the same substance?
**A.** Its value is 500 µg/mL.

**Q.** And the “MIC (alone)” value ([13]; TSB, 37 °C, 24 h)?
**A.** Its value is > 16,000 µg/ml.

**Q.** And the “MIC (combination)” value ([14]; A11 combined with nisin)?
**A.** The value was 500 µg/mL.

**Q.** What about the “MIC (alone)” value ([14]; TSB, 37 °C, 24 h) of the same substance?
**A.** Its value is > 16,000 µg/ml.

**Q.** And the “MIC (combination)” value ([15]; A11 combined with nisin)?
**A.** Its value is 500 µg/mL.

**Q.** And the “MIC (alone)” value ([15]; TSB, 37 °C, 24 h)?
**A.** Its value is > 16,000 µg/ml.

**Q.** And the “MIC (combination)” value ([16]; A11 combined with nisin)?
**A.** Its value is 500 µg/mL.

**Q.** What about the “MIC (alone)” value ([16]; TSB, 37 °C, 24 h) of the same substance?
**A.** Its value is > 16,000 µg/ml.

**Q.** And the MIC [17]?
**A.** Its MIC is > 16,000 µg/ml.

**Q.** And the MIC [18]?
**A.** Its MIC is > 16,000 µg/ml.

**Q.** What about the MIC [19] of the same substance?
**A.** Its MIC is 16,000 µg/ml.

**Q.** What about the MIC [20] of the same substance?
**A.** Its MIC is > 16,000 µg/ml.

**Q.** And the MIC [21]?
**A.** The MIC was > 16,000 µg/ml.

**Q.** What about the MIC [22] of the same substance?
**A.** Its MIC is > 16,000 µg/ml.

**Q.** And the MIC [23]?
**A.** Its MIC is > 16,000 µg/ml.

**Q.** What about the MIC [24] of the same substance?
**A.** Its MIC is > 16,000 µg/ml.

**Q.** What about the MIC [25] of the same substance?
**A.** Its MIC is > 16,000 µg/ml.

**Q.** What about the MIC [26] of the same substance?
**A.** The MIC was > 16,000 µg/ml.

**Q.** And the MIC [27]?
**A.** Its MIC is > 16,000 µg/ml.

**Q.** And the MIC [28]?
**A.** Its MIC is > 16,000 µg/ml.

**Q.** And the MIC [29]?
**A.** Its MIC is > 16,000 µg/ml.

**Q.** What about the MIC [30] of the same substance?
**A.** The MIC was > 16,000 µg/ml.
